One experiment has as its system MT-SSAT transgenic rats. Briefly: Zinc-induced pancreatitis, prevention by pretreatment with analogue (plasma α-amylase, pancreatic histology). Set-up: key to Histological scoring (0 to 4): Edema / Histological scoring (0 to 4): Inflammation: 0 (absent); 1 (minimal); 4 (maximal). It is filed as in vivo, rat. The note with it: for Histological scoring (0 to 4): Edema / Histological scoring (0 to 4): Inflammation / Histological scoring (0 to 4): Necrosis / Histological scoring (0 to 4): Vacuolization: Zn; for Plasma α-amylase activity / acinar necrosis (pancreatic histology): transgenic rats; for Plasma α-amylase activity: zinc 10 mg/kg; for acinar necrosis (pancreatic histology): zinc. The procedure:
FIG. 2. Plasma α-amylase activity in syngenic and transgenic rats after zinc and methylspermidine. The animals were treated as in FIG. 1. Six to eight animals in each group. *p<0.05 as compared with zinc-treated animals. ***p<0.001 as compared with untreated animals. Me-spd, methylspermidine.
FIGS. 3a–3d. Histology of pancreas of transgenic rats after zinc and methylspermidine. The animals were treated as in FIGS. 1a–1d. Magnification ×125. […] The animals received zinc (10 mg/kg) 24 h before sacrifice without (FIG. 3b) or with methylspermidine (50 mg/kg) either as single dose 4 h before zinc (FIG. 3c) or as two doses 20 h and 4 h before zinc (FIG. 3d).
Formalin-fixed pancreatic specimens were embedded in paraffin, cut into 5-μm-thick slices, and stained with hematoxylin/eosin. The stained sections were coded and scored by the participating gastroenterologist (K.-H. H.) according to the method of Niederau et al. (Niederau, C., Liddle, R. A., Ferrell, L. D., and Grendell, J. H. (1986) J. Clin. Invest. 78, 1056–1063).
FIG. 3 depicts pancreatic histology in transgenic animals after saline (FIG. 3a), after zinc alone (FIG. 3b), after zinc and single dose of the analogue (FIG. 3c) and after zinc and two doses of the analogue (FIG. 3d). The acinar structure of untreated transgenic animal is entirely normal (FIG. 3a) whereas zinc induced distinct pancreatitis with more than 50% of the acinar cells undergoing necrosis (FIG. 3b). […] Table A summarizes the histological scoring of pancreatic specimens from all animals. […] A single dose of the analogue administered prior to zinc reduced the extent of necrosis while after two repeated doses of the compound very little, if any, necrosis was present (Table A).
MT-SSAT (UKUR30) transgenic rats received zinc (10 mg/kg i.p.) 24 h before sacrifice either alone or in the combination with Me2SPM (25 mg/kg i.p.) administered twice 20 h and 4 h before zinc. There were three animals in each group. Plasma amylase activity was measured as a marker of pancreatitis.

The subject of experiment [1] is syngenic and transgenic rats. Briefly: Liver regeneration after partial hepatectomy (liver weight, PCNA labeling index, thymidine incorporation). It is filed as in vivo, rat. The note with it: for stimulation of DNA synthesis (thymidine incorporation): 25 mg/kg 20 h and 4 h before; for PCNA-positive hepatocytes: repeated experiment. The procedure:
FIGS. 5a–5b. Liver weight (FIG. 5a) and PCNA labeling index (FIG. 5b) in syngenic and transgenic rats after partial hepatectomy and methylspermidine. Three to five animals in each group. *p<0.05, ***p<0.001 as compared with preoperative values. Md-spd, methylspermidine.
FIG. 10. Effect of polyamine analogues on thymidine incorporation in 24-h regenerating livers of SSAT transgenic rats. […] Ten μCi of tritiated thymidine was given 30 min before sacrifice. Three to four animals in each group.
The production of transgenic Wistar rats (UKUR30) and mice (UKU181) harboring metallothionein-SSAT fusion gene (Suppola, S., Pietilä, M., Parkkinen, J. J., Korhonen, V. P., Alhonen, L., Halmekytö, M., Porter, C. W., and Jänne, J. (1999) Biochem. J. 338, 311–316) has been described earlier (Alhonen, L., Parkkinen, J. J., Keinänen, T., Sinervirta, R., Herzig, K. H., and Jänne, J. (2000) Proc. Natl. Acad. Sci. U.S.A. 97, 8290–8295; Lukkarinen, J., Gröhn, O., Sinervirta, R., Järvinen, A., Kauppinen, R. A., Jänne, J., and Alhonen, L. (1997) Stroke 28, 639–645). Partial hepatectomy was carried out according to the original method of Higgins and Anderson (Higgins, G. H., and Anderson, R. M. (1931) Arch. Pathol. 12, 186–202). Treatments before partial hepatectomy and the determination of DNA synthesis were carried out as in (Räsänen, T. L., Alhonen, L., Sinervirta, R., Keinänen, T., Herzig, K. H., Suppola, S., Khomutov, A. R., Vepsäläinen, J., and Jänne, J. (2002) J. Biol. Chem. 277, 39867–39872). […] The animals were sacrificed 24 h after the second MDL72527 injection and liver pieces were frozen in liquid nitrogen, homogenized in buffer (25 mM Tris-HCl pH 7.4, 0.1 mM EDTA, 1 mM DTT). An aliquot of the homogenates was used for the polyamine assays. The homogenates were centrifuged (at 13 000×g, for 30 min, at 4° C.) and the supernatants were used for the enzyme activity assays. The Institutional Animal Care and Use Committee of the University of Kuopio and by the Provincial Government approved animal experiments.
PCNA was detected from formalin-fixed paraffin-embedded tissue section as described in detail earlier (Alhonen, L., Räsänen, T. L., Sinervirta, R., Parkkinen, J. J., Korhonen, V. P., Pietilä, M., and Jänne, J. (2002) Biochem. J. 362, 149–15).
PCNA was used as an indicator of proliferative activity during liver regeneration. Immunohistochemical detection of PCNA is a convenient and commonly used method to grade proliferative activity in various tissues. PCNA expression is closely correlated with the S-phase of the cell cycle (17). FIG. 5b depicts PCNA labeling index before partial hepatectomy and at 24 h postoperatively in syngenic and transgenic rats without or with methylspermidine treatment. In resting liver, only about 1% of the hepatocytes were PCNA-positive. In syngenic animals, the number of PCNA-positive cells increased sharply to over 30% at 24 h after the operation whereas in transgenic animals the number of positive cells remained at the low preoperative level at this time point (FIG. 5b). […] The experiment was repeated with other groups of syngenic and transgenic rats. In this experiment, PCNA-positive hepatocytes accounted for 0.5±0.1% in resting syngenic liver. The number of positive cells rose to 10.7±3.5% at 24 h postoperatively without the analogue (p<0.001) and to 9.8±1.5% with the analogue (p<0.001). The corresponding figures for the transgenic animals were 0.20±0.0 before the operation, 0.42±0.24% at 24 h postoperatively without methylspermidine and 25.9±4.9% with methylspermidine (p<0.001). It thus appears that the analogue completely reversed the proliferative block in transgenic livers.
Liver regeneration could be restored by a prior administration of α-methylspermidine (Räsänen, T. L., Alhonen, L., Sinervirta, R., Keinänen, T., Herzig, K. H., Suppola, S., Khomutov, A. R., Vepsäläinen, J., and Jänne, J. (2002) J. Biol. Chem. 277, 39867–39872). […]

Setting [2] is: MT-SSAT transgenic rats, zinc 10 mg/kg i.p. 24 h, Me2SPM 25 mg/kg i.p. 20 h and 4 h before zinc.
Where [3] appears, read: SSAT transgenic rats, 24 h after partial hepatectomy.

Consider `CC(N)CCNCCCCNCCC(C)N` (stereo not drawn) [bis-α-methylspermine, 1,12-dimethylspermine], for which, in the experiment on MT-SSAT transgenic rats (setting [2]), the Pancreatic histology entry is reported as “modest edema” and the plasma amylase amounted to 2744 ± 837. Also, the prevention of pancreatitis result in the experiment on MT-SSAT transgenic rats (rats with depleted polyamine pools, 25 mg/kg 2 injections i.p. 20/4 hours prior to zinc) was “prevents pancreatitis”. For the same molecule, the “stimulation of DNA synthesis (thymidine incorporation)” value in experiment [1] (setting [3]) is “about 10 fold”.
Turning to `CC(N)CCNCCCCN` (stereo not drawn) [α-methylspermidine, 1-methylspermidine], the “Histological scoring (0 to 4): Edema” value in the experiment on MT-SSAT transgenic rats (Sg rats, 1 × Me-spd 50 mg/kg) came out at 1; in the experiment on MT-SSAT transgenic rats (Sg rats, 2 × Me-spd 50 mg/kg), 1; with MT-SSAT transgenic rats (Tg rats, 1 × Me-spd 50 mg/kg) it was 1; in the experiment on MT-SSAT transgenic rats (Tg rats, 2 × Me-spd 50 mg/kg), 1. Besides, the “Histological scoring (0 to 4): Inflammation” value in the experiment on MT-SSAT transgenic rats (Sg rats, 1 × Me-spd 50 mg/kg) is 1; with MT-SSAT transgenic rats (Sg rats, 2 × Me-spd 50 mg/kg) it was 0; in the experiment with MT-SSAT transgenic rats (Tg rats, 1 × Me-spd 50 mg/kg), 1; in the experiment with MT-SSAT transgenic rats (Tg rats, 2 × Me-spd 50 mg/kg), 1. In addition, the “Histological scoring (0 to 4): Necrosis” value is recorded as 0 (0, 0–5%) in the experiment on MT-SSAT transgenic rats (Sg rats, 1 × Me-spd 50 mg/kg); 0 (0, 0–5%) in the experiment on MT-SSAT transgenic rats (Sg rats, 2 × Me-spd 50 mg/kg); 2 (2, 15–35%) in the experiment with MT-SSAT transgenic rats (Tg rats, 1 × Me-spd 50 mg/kg); 0–1 in the experiment on MT-SSAT transgenic rats (Tg rats, 2 × Me-spd 50 mg/kg). The “Histological scoring (0 to 4): Vacuolization” value with MT-SSAT transgenic rats (Sg rats, 1 × Me-spd 50 mg/kg) is 0 (0, 0–5%); in the experiment with MT-SSAT transgenic rats (Sg rats, 2 × Me-spd 50 mg/kg) it was 0 (0, 0–5%); with MT-SSAT transgenic rats (Tg rats, 1 × Me-spd 50 mg/kg), 0 (0, 0–5%); with MT-SSAT transgenic rats (Tg rats, 2 × Me-spd 50 mg/kg), 1 (1, 5–15%). In addition, the “Plasma α-amylase activity” value with MT-SSAT transgenic rats (single dose 50 mg/kg 4 h before zinc) is on record as “decreased after a single dose”; in the experiment with MT-SSAT transgenic rats (two doses 50 mg/kg 20 h and 4 h before zinc) it was “fully normalized after two repeated doses”. Moreover, the figures for the “acinar necrosis (pancreatic histology)” value in the experiment with MT-SSAT transgenic rats (single dose before zinc) and in the experiment with MT-SSAT transgenic rats (two doses before zinc) were “very little necrosis was present” and “none after two doses”, respectively. In addition, the “thymidine incorporation (DNA synthesis)” value in experiment [1] (SSAT transgenic rats, 24 h after partial hepatectomy, 5 mg/kg 20 h and 4 h before) was “only insignificantly increased DNA synthesis”. Besides, the “stimulation of DNA synthesis (thymidine incorporation)” value in experiment [1] (setting [3]) was “about 10 fold”. The liver weight gain result in experiment [1] (non-transgenic rats, 24 h after partial hepatectomy) is “no effect on the weight gain”. Further, the PCNA-positive hepatocytes in experiment [1] (syngenic rats, 24 h postoperatively with the analogue) amounted to 9.8±1.5%; in experiment [1] (transgenic rats, 24 h postoperatively with methylspermidine) it was 25.9±4.9%. Further, the PCNA labeling index entry in experiment [1] (syngenic livers, 24 h after partial hepatectomy) is “did not change PCNA labeling index”. Besides, the PCNA-positive cells entry in experiment [1] (transgenic liver, 24 h after partial hepatectomy, from about 1%) is “more than 40%”. Further, in experiment [1] (transgenic rats, 24 h after partial hepatectomy), the liver weight entry is recorded as “significantly increased the organ weight”.
